Assay results as given in US20050049278A1, “Benzo[1,3]dioxole compounds, pharmaceutical compositions thereof, and processes of making and using the same” (priority 2003, published 2005).
Read-outs that look alike come from different tables or passages of the source.

Tests used:
HEK293 cells [1] = assay: Cell cycle analysis by FACS of HEK293 cells; assay type: cell-based; conditions: for Percent of Cells in G1 / Percent of Cells in G2/M / Percent of Cells in S: treated 16 to 24 hrs; for FACS profile / cell cycle effect: HEK293, FACS; for accumulation of cells in G2/M: HEK293, concentrations as in Table 1
Procedure: Fluorescence-activated cell sorting (FACS) analysis was used to examine the cell cycle state when the cells were incubated with compounds of formula (I) as well as several control compounds, including DMSO, noscapine (a known G2/M inhibitor), and colchicine (a known G2/M inhibitor).
(§1) In particular, HEK293 cells were cultured in DMEM media (Celigro) supplemented with 10% Fetal Bovine Serum (Tissue Culture Biologicals) and 1× Penicillin/Streptomycin/Glutamine (Gibco). The cells were grown at 37° C. with 5% CO2, plated in six-well plates at 2.5×10^6 cells/well, and treated for 16 to 24 hrs with the compounds at the concentrations shown in Table 1, below. The cells were then triturated off the bottom of the wells, washed 1× with PBS, then fixed with 70% ethanol, and stored at 4° C. before staining and FACS analysis.
The DNA content of cells was determined using a FacsVantage SE flow cytometry system (Becton Dickinson, San Jose, Calif.) and a Cellular DNA Flow Cytometric Analysis Kit (Roche Applied Science, Indianapolis, Ind.). Cell cycle analysis was performed using Cylchred 1.0.2 software.

[2] = tested on: non-stimulated peripheral blood lymphocytes (PBLs); assay: Cell cycle analysis on non-stimulated peripheral blood lymphocytes; assay type: cell-based; conditions: PBL (non-stimulated), 25 μM, 16 to 24 hrs
Procedure: (§2) The effects of compounds 5a,b on the cell cycle were further examined on phytohemagglutinin (PHA)-stimulated and non-stimulated peripheral blood lymphocytes (PBLs).
as §1, with “PBLs” for “In particular, HEK293 cells”, “2.5-5×10^6” for “2.5×10^6”, “2, below, with or without 1 μg/ml PHA (Sigma).” for “1, below.”

[3] = tested on: phytohemagglutinin (PHA)-stimulated peripheral blood lymphocytes (PBLs); assay: Cell cycle analysis on phytohemagglutinin-stimulated peripheral blood lymphocytes; assay type: cell-based; conditions: PHA-stim. PBL (1 μg/ml PHA), 25 μM, 16 to 24 hrs
Procedure: as §2
as §1, with “PBLs” for “In particular, HEK293 cells”, “2.5-5×10^6” for “2.5×10^6”, “2, below, with or without 1 μg/ml PHA (Sigma).” for “1, below.”

HEK293 cells [4] = assay: HEK293 cell viability, CellTiter 96 Aqueous One Solution Cell Proliferation assay; assay type: cell-based; conditions: Homo sapiens, HEK293, 48 h
Procedure: The effect of various doses of compounds 5a, 5a,b, and 9a on the viability of HEK293 cells was examined using the CellTiter 96 Aqueous One Solution Cell Proliferation assay (Promega). The HEK293 cells were cultured in DMEM media (Cellgro) or phenol red-free DMEM (Gibco) supplemented with 10% Fetal Bovine Serum (Tissue Culture Biologicals) and 1× Penicillin/Streptomycin/Glutamine (Gibco). The cells were grown at 37° C. with 5% CO2. HEK293 cells were seeded into each well of a 96-well plate (5000 cells/well) and incubated overnight to allow the cells to attach. The culture media was removed and replaced with 100 μl of phenol red-free media containing the compounds 5a, 5a,b, and 9a at various concentrations. The cells were allowed to grow in the presence of the compounds for 48 hrs. At the end of the treatment, 20 μl of CellTiter 96 Aqueous One Solution reagent was added directly into each well, and the cells were incubated at 37° C. for 2 hrs. This reagent converts to a form that absorbs light at 490 nm by living cells. Thus, absorbance at 490 nm is proportional to the number of viable cells. The 490 nm absorbance was measured on a BioRad plate reader. Control wells containing no cells were included in this assay to correct for background absorbance.

[5] = tested on: HTS-tubulin (90% tubulin plus 10% microtubule associated proteins); assay: Microtubule polymerization assay (turbidity at 340 nm); assay type: biochemical; conditions: absorbance at 340 nm, 30 minutes, 37° C., FIG. 3
Procedure: Microtubule polymerization assays were performed to determine if compounds, such as compound 9a, cause G2/M cell cycle arrest by affecting microtubule dynamics. A microtubule polymerization assay was performed that takes advantage of the observation that there is an increase in turbidity that can be measured at 340 nm as tubulin heterodimers polymerize to form microtubules. In brief, HTS-tubulin (90% tubulin plus 10% microtubule associated proteins; Cytoskeleton Inc., Denver, Colo.) was resuspended in G-PEM buffer (80 mM Pipes, pH 6.9; 2 mM MgCl2; 0.5 mM EDTA; 1 mM GTP) to 10 mg/ml. This suspension was clarified by centrifugation for 10 min. at 225,000×g. The supernatant was then diluted with G-PEM buffer to 2 mg/ml and 100 μl of this solution was added to the appropriate number of ½-area wells in a 96-well format (Corning). Each compound (10 μl of a 10× final concentration in 10% DMSO) was added to the wells in duplicate and immediately put into a pre-warmed (37° C.) Spectromax 190 plate reader. The absorbance was read at 340 nm immediately (time=0) and every minute thereafter for 30 minutes.
The tubulin mix was incubated in the presence of paclitaxel (a microtubule stabilizing agent), nocodazole (a microtubule destabilizing agent), vehicle control (DMSO), or varying concentrations of compound 9a (FIG. 3).

topoisomerase I = molecular target: T1, topoisomerase I (Homo sapiens, UniProt P11387); assay: Topoisomerase I assay (supercoiled pBluescript DNA, agarose gel); assay type: biochemical; conditions: in vitro, FIG. 2
T1 construct: purchased Sigma-Aldrich
T1 sequence (P11387 1-765): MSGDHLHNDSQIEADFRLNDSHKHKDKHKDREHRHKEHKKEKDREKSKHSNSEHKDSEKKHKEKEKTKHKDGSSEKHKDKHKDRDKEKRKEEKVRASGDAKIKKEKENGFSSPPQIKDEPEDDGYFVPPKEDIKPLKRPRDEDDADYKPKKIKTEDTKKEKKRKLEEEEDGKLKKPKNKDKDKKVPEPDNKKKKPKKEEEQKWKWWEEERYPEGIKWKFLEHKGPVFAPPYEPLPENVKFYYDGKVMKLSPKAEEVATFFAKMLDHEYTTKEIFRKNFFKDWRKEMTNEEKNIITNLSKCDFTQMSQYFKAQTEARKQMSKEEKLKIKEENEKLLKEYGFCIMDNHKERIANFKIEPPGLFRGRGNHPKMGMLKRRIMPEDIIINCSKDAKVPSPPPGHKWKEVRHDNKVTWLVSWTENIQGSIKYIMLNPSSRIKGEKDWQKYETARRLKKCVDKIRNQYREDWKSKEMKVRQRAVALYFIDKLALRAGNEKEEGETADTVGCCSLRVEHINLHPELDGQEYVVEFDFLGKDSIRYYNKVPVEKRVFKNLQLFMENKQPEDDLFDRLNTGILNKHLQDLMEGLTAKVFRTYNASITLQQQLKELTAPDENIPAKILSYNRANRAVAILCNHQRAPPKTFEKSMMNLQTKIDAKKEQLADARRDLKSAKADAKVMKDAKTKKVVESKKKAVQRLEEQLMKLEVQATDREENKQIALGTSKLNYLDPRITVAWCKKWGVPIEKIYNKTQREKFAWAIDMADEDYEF
Procedure: (§3) The ability of compounds that cause S-phase cell cycle arrest to inhibit topoisomerase I and topoisomerase II was examined. Analysis of topoisomerase activity was performed in 20 μl reactions with either topoisomerase I reaction buffer (10 mM TRIS-HCl, pH 7.5; 100 mM NaCl; 1 mM 2-mercaptoethanol) or topoisomerase II reaction buffer (50 mM Tris-HCl, pH 8; 120 mM KCl; 10 mM MgCl2; 0.5 mM dithiothreitol; 0.5 mM ATP; 30 μg BSA/ml) containing 125 ng supercoiled pBluescript DNA and either 2 U topoisomerase I (Sigma-Aldrich) or topoisomerase II (Topogen Inc.). After reaction at 37° C. for 20 minutes, the reactions were terminated through the addition of sodium dodecyl sulfate to 1% w/v and heating to 65° C. for 10 minutes. Proteinase K was then added to 10 μg/ml and digestion was allowed to proceed at 37° C. for 20 minutes before electrophoresis of the DNA in 0.8% agarose gels containing 0.5 μg/ml ethidium bromide for 18 hours at 75V in 0.5×TBE buffer. DNA was then visualized using a UV-transilluminator and the image was captured using a BioRad CCD camera and gel documentation system.

topoisomerase II = molecular target: T2, topoisomerase II (Homo sapiens, UniProt P11388); assay: Topoisomerase II assay (supercoiled pBluescript DNA, agarose gel); assay type: biochemical; conditions: in vitro, FIG. 2
T2 construct: purchased Topogen Inc
Procedure: as §3, with “Analysis” for “The ability of compounds that cause S-phase cell cycle arrest to inhibit topoisomerase I and topoisomerase II was examined. Analysis”

T2 sequence (P11388 whole entry): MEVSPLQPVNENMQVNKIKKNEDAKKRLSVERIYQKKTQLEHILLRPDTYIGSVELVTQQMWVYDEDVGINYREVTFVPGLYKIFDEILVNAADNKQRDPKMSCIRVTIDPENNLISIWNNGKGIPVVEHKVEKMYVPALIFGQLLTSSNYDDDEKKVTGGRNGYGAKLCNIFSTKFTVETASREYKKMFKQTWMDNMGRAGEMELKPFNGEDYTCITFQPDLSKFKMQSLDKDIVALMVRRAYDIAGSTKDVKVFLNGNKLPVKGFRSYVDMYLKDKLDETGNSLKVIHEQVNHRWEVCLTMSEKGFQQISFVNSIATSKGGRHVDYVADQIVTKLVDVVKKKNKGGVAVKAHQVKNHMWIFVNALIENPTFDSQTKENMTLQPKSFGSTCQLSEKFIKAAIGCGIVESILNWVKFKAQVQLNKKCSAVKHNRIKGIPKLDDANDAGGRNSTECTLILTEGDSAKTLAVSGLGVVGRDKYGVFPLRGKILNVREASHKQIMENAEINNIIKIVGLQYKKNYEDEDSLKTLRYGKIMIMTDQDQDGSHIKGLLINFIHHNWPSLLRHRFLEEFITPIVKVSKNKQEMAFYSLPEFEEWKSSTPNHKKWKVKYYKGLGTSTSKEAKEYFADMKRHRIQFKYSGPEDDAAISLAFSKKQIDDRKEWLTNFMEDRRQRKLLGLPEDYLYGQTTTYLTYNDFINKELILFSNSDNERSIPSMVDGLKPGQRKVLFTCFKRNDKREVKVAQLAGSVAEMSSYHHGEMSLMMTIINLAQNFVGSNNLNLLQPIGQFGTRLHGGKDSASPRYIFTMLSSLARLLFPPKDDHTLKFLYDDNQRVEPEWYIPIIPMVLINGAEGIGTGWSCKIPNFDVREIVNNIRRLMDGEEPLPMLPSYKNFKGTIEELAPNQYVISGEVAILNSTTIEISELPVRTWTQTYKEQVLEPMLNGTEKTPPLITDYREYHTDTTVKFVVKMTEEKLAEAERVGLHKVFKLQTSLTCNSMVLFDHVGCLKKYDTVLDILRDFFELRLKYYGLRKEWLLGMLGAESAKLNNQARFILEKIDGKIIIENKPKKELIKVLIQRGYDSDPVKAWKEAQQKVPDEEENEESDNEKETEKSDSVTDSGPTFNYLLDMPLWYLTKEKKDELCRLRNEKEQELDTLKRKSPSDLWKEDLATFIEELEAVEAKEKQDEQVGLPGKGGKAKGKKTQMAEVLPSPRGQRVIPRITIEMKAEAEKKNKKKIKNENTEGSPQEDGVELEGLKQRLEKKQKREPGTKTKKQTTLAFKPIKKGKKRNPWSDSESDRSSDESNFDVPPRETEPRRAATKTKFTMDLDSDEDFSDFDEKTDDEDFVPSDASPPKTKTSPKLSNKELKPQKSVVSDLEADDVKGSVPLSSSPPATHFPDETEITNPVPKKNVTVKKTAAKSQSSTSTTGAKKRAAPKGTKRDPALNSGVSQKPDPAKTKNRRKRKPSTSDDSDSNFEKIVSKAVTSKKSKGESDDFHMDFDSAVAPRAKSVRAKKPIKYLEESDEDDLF

COc1ccc2c(c1OCc1ccccc1)C(=O)OC2[C@H]1c2c(cc3c(c2OC)OCO3)CCN1C (stereo partly shown) [6a,b]
Percent of Cells in G1 (HEK293 cells [1]; HEK293, 50 μM): 12.1% | Percent of Cells in G2/M (HEK293 cells [1]; HEK293, 50 μM): 16.7% | Percent of Cells in S (HEK293 cells [1]; HEK293, 50 μM): 71.2% | FACS profile / cell cycle effect (HEK293 cells [1]): accumulating in S-phase

COc1cc(COc2c(OC)ccc3c2C(=O)OC3[C@H]2c3c(cc4c(c3OC)OCO4)CCN2C)cc(OC)c1OC (stereo partly shown) [Compound 5a,b]
Percent of Cells in G1 (HEK293 cells [1]; HEK293, 50 μM): 13.1% | Percent of Cells in G2/M (HEK293 cells [1]; HEK293, 50 μM): 6.3% | Percent of Cells in S (HEK293 cells [1]; HEK293, 50 μM): 80.7% | FACS profile / cell cycle effect (HEK293 cells [1]): accumulate more cells in S-phase than 6a,b | Percent of Cells in G1 [2]: 91.6% | Percent of Cells in G2/M [2]: 1.5% | Percent of Cells in S [2]: 6.8% | Percent of Cells in G1 [3]: 69.3% | Percent of Cells in G2/M [3]: 5.4% | Percent of Cells in S [3]: 25.3% | EC50 (HEK293 cells [4]): 400 nM | EC50 (HEK293 cells [4]; text summary): < 1000 nM

COc1cc(COc2c(OC)ccc3c2C(=O)O[C@@H]3[C@H]2c3c(cc4c(c3OC)OCO4)CCN2C)cc(OC)c1OC [Compound 5a]
EC50 (HEK293 cells [4]; read-out: EC50): 300 nM | EC50 (HEK293 cells [4]; text summary, read-out: EC50): < 1000 nM

COc1ccc2c(c1C#N)C(=O)O[C@@H]2[C@H]1c2c(cc3c(c2OC)OCO3)CCN1C [Compound 10, 5-methoxy-1-(4-methoxy-6-methyl-5,6,7,8-tetrahydro-[1,3]dioxolo-[4,5-g]isoguinolin-5-yl)-3-oxo-1,3-dihydro-isobenzofuran-4-carbonitrile]
Percent of Cells in G1 (HEK293 cells [1]; HEK293, 50 μM): 2% | Percent of Cells in G2/M (HEK293 cells [1]; HEK293, 50 μM): 89.2% | Percent of Cells in S (HEK293 cells [1]; HEK293, 50 μM): 8.8% | accumulation of cells in G2/M (HEK293 cells [1]): ~90%

COc1ccc2c(c1)C(=O)O[C@@H]2[C@H]1c2c(cc3c(c2OC)OCO3)CCN1C [Compound 12]
Percent of Cells in G1 (HEK293 cells [1]; HEK293, 1 μM): 3.8% | Percent of Cells in G2/M (HEK293 cells [1]; HEK293, 1 μM): 89.8% | Percent of Cells in S (HEK293 cells [1]; HEK293, 1 μM): 6.4% | accumulation of cells in G2/M (HEK293 cells [1]): ~90%

COc1ccc2c(c1S)C(=O)O[C@@H]2[C@H]1c2c(cc3c(c2OC)OCO3)CCN1C [Compound 13]
Percent of Cells in G1 (HEK293 cells [1]; HEK293, 5 μM): 3.2% | Percent of Cells in G2/M (HEK293 cells [1]; HEK293, 5 μM): 89.6% | Percent of Cells in S (HEK293 cells [1]; HEK293, 5 μM): 7.2% | accumulation of cells in G2/M (HEK293 cells [1]): ~90%

COC(=O)Nc1nc2ccc(C(=O)c3cccs3)cc2[nH]1 [Nocodazole, reference compound]
EC50 (HEK293 cells [4]; read-out: EC50): < 20 nM | effect on microtubule polymerization [5]: decreased microtubule polymerization

CC(=O)O[C@H]1C(=O)[C@@]2(C)[C@H]([C@H](OC(=O)c3ccccc3)[C@]3(O)C[C@H](OC(=O)[C@H](O)[C@@H](NC(=O)c4ccccc4)c4ccccc4)C(C)=C1C3(C)C)[C@]1(OC(C)=O)CO[C@@H]1C[C@@H]2O [Paclitaxel, reference compound]
EC50 (HEK293 cells [4]; read-out: EC50): < 100 nM | effect on microtubule polymerization [5]: increased microtubule polymerization

COc1cc2c(c(OC)c1OC)-c1ccc(OC)c(=O)cc1[C@@H](NC(C)=O)CC2 [colchicine, reference compound]
Percent of Cells in G1 (HEK293 cells [1]; HEK293, 10 μM): 2.7% | Percent of Cells in G2/M (HEK293 cells [1]; HEK293, 10 μM): 83.4% | Percent of Cells in S (HEK293 cells [1]; HEK293, 10 μM): 13.9%

COc1cc([C@@H]2c3cc4c(cc3[C@@H](O[C@@H]3O[C@@H]5CO[C@@H](C)O[C@H]5[C@H](O)[C@H]3O)[C@H]3COC(=O)[C@H]23)OCO4)cc(OC)c1O [etoposide]
inhibition of topoisomerase I activity (topoisomerase I): neither etoposide nor noscapine inhibited

CC[C@@]1(O)C(=O)OCc2c1cc1n(c2=O)Cc2cc3c(CN(C)C)c(O)ccc3nc2-1 [topotecan]
concentrations at which topoisomerase I activity was inhibited (topoisomerase I): below 3 μM | inhibition of topoisomerase II activity (topoisomerase II): neither topotecan nor noscapine acts as inhibitors
